Measurements: ChEMBL document CHEMBL1201862, “PubChem BioAssay data set” (2004)
The source made the active and inactive calls.

Key:
[1] = target: Mu-type opioid receptor (Homo sapiens, UniProt P35372); type: functional, cell-based;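 also: U2OS cells with beta-arrestin recruitment to OPRM1 by beta-gal complementation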
[2] = target: 5-hydroxytryptamine receptor 2A (Mus musculus, UniProt P35363); type: functional, cell-based;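 also: CHO-K1 cells with tagged receptor and beta-arrestin; agonist potency measured as compound-induced activation of the receptor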
[3] = target: T1, DNA repair protein RAD52 homolog (Homo sapiens, UniProt P43351); type: functional, biochemical
T1 sequence (P43351 whole entry): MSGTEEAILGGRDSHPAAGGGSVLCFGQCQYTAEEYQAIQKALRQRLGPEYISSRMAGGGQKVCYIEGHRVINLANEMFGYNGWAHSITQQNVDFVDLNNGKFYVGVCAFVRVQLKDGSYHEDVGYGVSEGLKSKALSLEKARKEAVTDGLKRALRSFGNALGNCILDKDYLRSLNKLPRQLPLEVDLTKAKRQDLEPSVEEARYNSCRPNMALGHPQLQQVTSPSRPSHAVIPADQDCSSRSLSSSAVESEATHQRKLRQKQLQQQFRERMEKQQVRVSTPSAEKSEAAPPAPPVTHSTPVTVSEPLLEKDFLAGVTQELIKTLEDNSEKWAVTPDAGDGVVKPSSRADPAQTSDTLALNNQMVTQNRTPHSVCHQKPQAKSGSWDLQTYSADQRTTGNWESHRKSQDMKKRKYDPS

[4] = target: T2, DNA repair and recombination protein RAD54-like (Homo sapiens, UniProt Q92698); assay: RAD54 Holliday junction migration blockers – biochemical, fluorescence, cherry-picked samples, dose series, confirmation (AID 651657); type: functional
T2 sequence (Q92698 whole entry): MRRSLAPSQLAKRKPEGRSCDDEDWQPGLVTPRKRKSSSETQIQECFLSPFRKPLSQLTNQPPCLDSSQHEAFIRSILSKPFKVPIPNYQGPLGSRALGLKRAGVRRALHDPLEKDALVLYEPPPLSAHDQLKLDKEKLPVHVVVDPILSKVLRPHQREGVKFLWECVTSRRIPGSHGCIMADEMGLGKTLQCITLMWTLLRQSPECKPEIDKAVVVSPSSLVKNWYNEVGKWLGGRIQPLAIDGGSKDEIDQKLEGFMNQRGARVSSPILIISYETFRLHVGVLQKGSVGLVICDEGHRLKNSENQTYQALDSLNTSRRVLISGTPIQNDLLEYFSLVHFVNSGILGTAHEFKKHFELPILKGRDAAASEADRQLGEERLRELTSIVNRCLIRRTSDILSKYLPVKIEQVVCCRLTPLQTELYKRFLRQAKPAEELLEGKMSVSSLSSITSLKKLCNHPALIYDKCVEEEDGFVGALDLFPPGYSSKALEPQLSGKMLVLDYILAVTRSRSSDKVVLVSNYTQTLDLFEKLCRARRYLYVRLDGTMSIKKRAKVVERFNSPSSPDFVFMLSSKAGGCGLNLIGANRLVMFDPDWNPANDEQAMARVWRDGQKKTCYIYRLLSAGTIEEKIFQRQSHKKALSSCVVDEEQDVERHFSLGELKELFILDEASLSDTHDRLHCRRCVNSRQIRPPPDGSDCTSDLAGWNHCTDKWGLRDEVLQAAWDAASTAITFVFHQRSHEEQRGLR

[5] = target: T3, Polyadenylate-binding protein 1 (Homo sapiens, UniProt P11940); assay: MLLE domain peptide-binding blockers, IC50 – biochemical, fluorescence polarization, FITC-PAM2 peptide, dose response (AID 602259); type: functional; conditions: read-out: IC50_Mean
[6] = target: Glucose-6-phosphate 1-dehydrogenase (Homo sapiens, UniProt P11413); assay: inhibition of Homo sapiens G6PD, dose series – biochemical, fluorescence, selectivity assay for P. falciparum G6PD inhibitor project, dose response (AID 504792); type: functional
[7] = target: T3, Polyadenylate-binding protein 1; assay: MLLE binding blockers, Cy5 peptide tracer – biochemical, fluorescence polarization, Cy5-PAM2 peptide, secondary, miRNA deadenylation inhibitor project, dose response (AID 602260); type: functional; conditions: read-out: IC50_Mean
[8] = target: Genome polyprotein (dengue virus type 2, UniProt P29990); assay: flavivirus cap methylation enzyme inhibition – biochemical, confirmation dose response, primary screen (AID 588689); type: functional
[9] = target: T4, Calpain-2 catalytic subunit (Sus scrofa, UniProt P43367); assay: m-calpain protease blockers, concentration series – biochemical, fluorogenic peptide substrate, dose response (AID 1420); type: functional
T4 sequence (P43367 whole entry): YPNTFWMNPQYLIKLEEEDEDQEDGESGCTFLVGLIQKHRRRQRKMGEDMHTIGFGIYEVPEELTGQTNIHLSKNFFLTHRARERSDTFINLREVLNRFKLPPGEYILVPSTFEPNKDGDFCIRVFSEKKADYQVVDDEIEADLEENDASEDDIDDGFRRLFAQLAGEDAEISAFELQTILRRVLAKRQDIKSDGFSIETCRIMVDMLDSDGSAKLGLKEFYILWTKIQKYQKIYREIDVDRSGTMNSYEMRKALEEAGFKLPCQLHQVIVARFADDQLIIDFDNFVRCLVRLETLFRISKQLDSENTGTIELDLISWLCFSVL

[10] = target: T5, Streptokinase A (Streptococcus pyogenes serotype M1, UniProt P10520); assay: viability-normalized secreted streptokinase activity reduction – plasminogen activation absorbance, OD405, dose response (AID 1914); type: functional, Streptococcus pyogenes M1 GAS;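 also: secreted streptokinase activity via plasminogen activation per viability signal from cell pellet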
T5 sequence (P10520 whole entry): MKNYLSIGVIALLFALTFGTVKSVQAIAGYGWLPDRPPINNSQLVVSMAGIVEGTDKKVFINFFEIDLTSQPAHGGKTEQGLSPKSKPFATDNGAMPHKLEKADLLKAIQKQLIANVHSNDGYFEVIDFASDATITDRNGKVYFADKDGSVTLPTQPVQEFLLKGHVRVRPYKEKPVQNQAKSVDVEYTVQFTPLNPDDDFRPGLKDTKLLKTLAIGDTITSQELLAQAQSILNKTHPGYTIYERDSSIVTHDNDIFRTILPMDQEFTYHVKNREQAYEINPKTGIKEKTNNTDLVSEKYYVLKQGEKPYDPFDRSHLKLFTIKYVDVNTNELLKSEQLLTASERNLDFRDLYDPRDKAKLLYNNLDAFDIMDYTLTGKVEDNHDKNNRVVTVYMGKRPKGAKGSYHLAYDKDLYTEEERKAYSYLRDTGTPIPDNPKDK

[11] = target: T6, Methionyl-tRNA synthetase, putative (Trypanosoma brucei brucei, UniProt Q38C91); type: functional, Trypanosoma brucei brucei strain 927/4 GUTat10.1
T6 sequence (Q38C91 whole entry): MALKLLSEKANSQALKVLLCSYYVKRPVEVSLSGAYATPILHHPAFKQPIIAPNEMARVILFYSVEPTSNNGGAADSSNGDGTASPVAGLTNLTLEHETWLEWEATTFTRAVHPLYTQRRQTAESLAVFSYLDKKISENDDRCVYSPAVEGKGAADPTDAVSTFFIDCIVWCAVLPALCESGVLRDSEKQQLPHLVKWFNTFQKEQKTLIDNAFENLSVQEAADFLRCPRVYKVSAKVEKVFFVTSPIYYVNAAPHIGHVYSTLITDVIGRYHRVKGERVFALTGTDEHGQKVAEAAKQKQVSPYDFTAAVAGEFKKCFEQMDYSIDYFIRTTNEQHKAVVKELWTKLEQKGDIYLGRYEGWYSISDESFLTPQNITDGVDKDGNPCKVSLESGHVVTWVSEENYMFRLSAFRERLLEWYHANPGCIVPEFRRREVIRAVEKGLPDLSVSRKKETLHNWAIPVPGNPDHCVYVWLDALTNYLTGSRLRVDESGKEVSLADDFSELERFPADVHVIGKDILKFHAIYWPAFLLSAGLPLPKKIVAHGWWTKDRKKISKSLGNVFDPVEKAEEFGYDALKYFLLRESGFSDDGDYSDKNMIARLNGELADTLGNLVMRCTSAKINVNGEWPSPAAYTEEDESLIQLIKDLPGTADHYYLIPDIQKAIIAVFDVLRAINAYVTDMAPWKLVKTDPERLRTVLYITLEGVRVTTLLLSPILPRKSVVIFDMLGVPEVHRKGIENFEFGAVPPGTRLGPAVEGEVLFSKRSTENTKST

[12] = target: T6, Methionyl-tRNA synthetase, putative; type: functional, Trypanosoma brucei brucei strain 927/4 GUTat10.1; remark: listed apart in the source
[13] = test system: BJ; assay: BJ-TERT fibroblast viability loss – cell-based, RAS-independent, luminescence, dose response (AID 1933); type: functional; conditions: Homo sapiens
[14] = test system: BJ; assay: BJ-TERT-LT-ST fibroblast viability loss – cell-based, RAS-independent, luminescence, dose response (AID 1935); type: functional; conditions: Homo sapiens;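 also: BJ fibroblasts immortalized with TERT plus LT and ST oncogenes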
[15] = DRD fibroblast viability loss – cell-based, non-viral oncogenic, luminescence, dose response (AID 1934); type: functional; conditions: Homo sapiens
[16] = target: T7, Ubiquitin-conjugating enzyme E2 N (Homo sapiens, UniProt P61088); type: functional;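 also: Dose-response confirmation in a TR-FRET assay detecting UBC13-driven polyubiquitin chain formation, inhibition measured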
T7 sequence (P61088 whole entry): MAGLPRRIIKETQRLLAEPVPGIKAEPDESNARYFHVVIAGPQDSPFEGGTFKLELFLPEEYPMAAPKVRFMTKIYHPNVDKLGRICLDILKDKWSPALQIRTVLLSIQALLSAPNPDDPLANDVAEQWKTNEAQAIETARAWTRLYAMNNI

[17] = test system: BJ; assay: cells; type: functional, cell-based; conditions: Homo sapiens
[18] = test system: BJ; assay: growth inhibition of engineered Ras-driven BJ cells – cell-based, alamar blue fluorescence, cherrypicked samples, dose response (AID 2631); type: functional; conditions: Homo sapiens;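 also: confirmatory dose-response assay in RAS-dependent BJ fibroblasts engineered with TERT, LT and ST, with cytotoxicity read by fluorescence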
[19] = viability of uninfected HEp-2 cells – cell-based, HTS, cytotoxicity control for RSV inhibitor project, dose response (AID 2410); type: functional; conditions: human respiratory syncytial virus
[20] = Counterscreen for inhibitors of Trypanosoma brucei methionyl tRNA synthetase (MetRS): Luminescence-based cell-based high throughput dose response assay to identify compounds that are cytotoxic to Jurkat human T lymphocyte cells.; type: functional
[21] = target: T8, Sentrin-specific protease 8 (Homo sapiens, UniProt Q96LD8); type: functional
T8 sequence (Q96LD8 whole entry): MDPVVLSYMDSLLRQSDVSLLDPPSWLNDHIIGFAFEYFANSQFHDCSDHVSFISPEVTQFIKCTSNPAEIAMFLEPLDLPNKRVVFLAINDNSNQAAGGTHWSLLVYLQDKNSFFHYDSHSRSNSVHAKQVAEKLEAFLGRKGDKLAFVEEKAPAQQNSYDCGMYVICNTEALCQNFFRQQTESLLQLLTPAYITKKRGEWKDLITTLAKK

[22] = target: T8, Sentrin-specific protease 8; type: functional; remark: listed apart in the source
[23] = test system: Streptococcus sp. 'group A'; assay: Streptococcus pyogenes SK(-)GAS viability under kanamycin – luminescence, BacTiterGlo, confirmation, counter-screen for streptokinase expression inhibitor project, dose response (AID 1900); type: functional, organism-based
[24] = test system: Streptococcus; assay: GAS UMAA2166 growth inhibition – luminescence, BacTiterGlo, counter-screen for streptokinase expression inhibitor project, dose response (AID 1915); type: functional, organism-based;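 also: potency for reduction of bacterial viability or growth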
[25] = Luminescence Cell-Based Dose Retest to Confirm Inhibitors of Cancer Stem Cells. [Related pubchem assays (depositor defined):AID2717, AID2721]; type: functional; conditions: Homo sapiens
[26] = target: Large T antigen (Simian virus 40, UniProt P03070); type: functional, Betapolyomavirus macacae;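 also: Confirmatory-stage PubChem screen for compounds that inhibit SV40 T antigen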
Sequence of Large T antigen (P03070 whole entry): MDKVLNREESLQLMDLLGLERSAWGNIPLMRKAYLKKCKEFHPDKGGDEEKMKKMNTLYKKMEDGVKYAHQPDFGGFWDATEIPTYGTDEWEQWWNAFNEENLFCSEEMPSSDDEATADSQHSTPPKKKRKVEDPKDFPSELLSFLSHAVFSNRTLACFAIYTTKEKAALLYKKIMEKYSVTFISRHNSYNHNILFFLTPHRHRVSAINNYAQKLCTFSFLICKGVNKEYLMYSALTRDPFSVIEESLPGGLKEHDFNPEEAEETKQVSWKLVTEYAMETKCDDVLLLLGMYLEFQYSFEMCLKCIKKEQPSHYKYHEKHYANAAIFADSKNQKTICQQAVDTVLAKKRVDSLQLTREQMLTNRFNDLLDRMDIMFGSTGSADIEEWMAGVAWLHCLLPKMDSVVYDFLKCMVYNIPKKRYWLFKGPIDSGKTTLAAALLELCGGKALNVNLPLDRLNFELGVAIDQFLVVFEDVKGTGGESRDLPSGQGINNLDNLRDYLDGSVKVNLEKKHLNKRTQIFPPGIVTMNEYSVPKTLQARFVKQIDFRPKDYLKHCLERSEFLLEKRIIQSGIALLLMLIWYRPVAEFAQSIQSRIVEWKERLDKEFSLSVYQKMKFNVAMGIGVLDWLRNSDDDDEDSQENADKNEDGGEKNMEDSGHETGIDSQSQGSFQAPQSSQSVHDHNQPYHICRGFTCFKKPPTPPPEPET

Sequence of 5-hydroxytryptamine receptor 2A (P35363 whole entry): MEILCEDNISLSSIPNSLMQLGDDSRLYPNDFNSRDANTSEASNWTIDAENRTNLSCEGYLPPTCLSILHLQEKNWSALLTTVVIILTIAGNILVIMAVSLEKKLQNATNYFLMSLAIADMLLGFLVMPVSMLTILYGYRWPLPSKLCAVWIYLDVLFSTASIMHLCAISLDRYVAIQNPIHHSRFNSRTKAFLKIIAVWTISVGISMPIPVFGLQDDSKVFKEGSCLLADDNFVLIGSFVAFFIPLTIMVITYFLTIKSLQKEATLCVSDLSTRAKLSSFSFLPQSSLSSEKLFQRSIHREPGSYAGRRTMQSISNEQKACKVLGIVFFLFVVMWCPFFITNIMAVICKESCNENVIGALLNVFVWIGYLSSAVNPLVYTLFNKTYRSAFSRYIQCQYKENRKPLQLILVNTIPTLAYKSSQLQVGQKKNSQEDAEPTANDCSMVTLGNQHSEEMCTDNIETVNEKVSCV
Sequence of Mu-type opioid receptor (P35372 whole entry): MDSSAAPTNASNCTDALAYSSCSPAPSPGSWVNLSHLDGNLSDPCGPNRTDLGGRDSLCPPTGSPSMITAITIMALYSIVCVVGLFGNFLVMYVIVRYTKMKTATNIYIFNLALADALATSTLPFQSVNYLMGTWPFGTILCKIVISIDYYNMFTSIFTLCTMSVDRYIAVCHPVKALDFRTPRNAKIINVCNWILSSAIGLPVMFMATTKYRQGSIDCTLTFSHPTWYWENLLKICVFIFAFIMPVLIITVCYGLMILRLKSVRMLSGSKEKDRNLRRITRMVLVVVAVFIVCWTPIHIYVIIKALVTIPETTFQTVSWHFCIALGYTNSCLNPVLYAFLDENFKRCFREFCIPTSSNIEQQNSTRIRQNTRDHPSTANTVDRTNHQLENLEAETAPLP
T3 sequence (P11940 whole entry, the tested form may be a part): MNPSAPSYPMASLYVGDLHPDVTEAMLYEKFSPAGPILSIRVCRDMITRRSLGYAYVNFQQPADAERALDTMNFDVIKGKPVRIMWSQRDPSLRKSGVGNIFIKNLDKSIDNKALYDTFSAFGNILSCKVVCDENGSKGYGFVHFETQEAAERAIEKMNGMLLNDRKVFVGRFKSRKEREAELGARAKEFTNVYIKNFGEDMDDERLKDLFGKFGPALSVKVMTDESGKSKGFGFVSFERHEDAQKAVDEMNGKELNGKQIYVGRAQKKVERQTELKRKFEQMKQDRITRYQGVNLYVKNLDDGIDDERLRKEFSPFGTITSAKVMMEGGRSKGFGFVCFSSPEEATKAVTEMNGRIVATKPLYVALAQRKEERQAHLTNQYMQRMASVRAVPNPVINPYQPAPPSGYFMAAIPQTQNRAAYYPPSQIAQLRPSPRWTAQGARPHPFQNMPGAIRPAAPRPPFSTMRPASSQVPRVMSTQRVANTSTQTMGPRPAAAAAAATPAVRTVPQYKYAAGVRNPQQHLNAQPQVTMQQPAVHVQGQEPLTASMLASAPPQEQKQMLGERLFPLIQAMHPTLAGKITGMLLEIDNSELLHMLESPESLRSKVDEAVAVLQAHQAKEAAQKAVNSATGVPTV
Sequence of Glucose-6-phosphate 1-dehydrogenase (P11413 whole entry): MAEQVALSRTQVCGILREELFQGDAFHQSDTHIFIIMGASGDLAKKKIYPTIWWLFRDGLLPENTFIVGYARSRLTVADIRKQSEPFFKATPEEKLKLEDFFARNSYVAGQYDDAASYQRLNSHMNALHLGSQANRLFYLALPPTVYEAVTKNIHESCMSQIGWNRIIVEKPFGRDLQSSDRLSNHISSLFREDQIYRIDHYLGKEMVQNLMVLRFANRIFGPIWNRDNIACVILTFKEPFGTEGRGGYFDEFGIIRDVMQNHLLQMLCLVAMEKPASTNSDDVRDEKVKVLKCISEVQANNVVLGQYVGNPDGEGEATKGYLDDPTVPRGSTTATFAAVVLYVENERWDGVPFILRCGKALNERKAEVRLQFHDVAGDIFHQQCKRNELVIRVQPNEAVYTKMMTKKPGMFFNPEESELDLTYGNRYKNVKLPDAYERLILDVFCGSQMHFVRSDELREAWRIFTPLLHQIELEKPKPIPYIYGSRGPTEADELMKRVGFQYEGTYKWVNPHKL
Sequence of Genome polyprotein (P29990 2492-3391 limits assumed): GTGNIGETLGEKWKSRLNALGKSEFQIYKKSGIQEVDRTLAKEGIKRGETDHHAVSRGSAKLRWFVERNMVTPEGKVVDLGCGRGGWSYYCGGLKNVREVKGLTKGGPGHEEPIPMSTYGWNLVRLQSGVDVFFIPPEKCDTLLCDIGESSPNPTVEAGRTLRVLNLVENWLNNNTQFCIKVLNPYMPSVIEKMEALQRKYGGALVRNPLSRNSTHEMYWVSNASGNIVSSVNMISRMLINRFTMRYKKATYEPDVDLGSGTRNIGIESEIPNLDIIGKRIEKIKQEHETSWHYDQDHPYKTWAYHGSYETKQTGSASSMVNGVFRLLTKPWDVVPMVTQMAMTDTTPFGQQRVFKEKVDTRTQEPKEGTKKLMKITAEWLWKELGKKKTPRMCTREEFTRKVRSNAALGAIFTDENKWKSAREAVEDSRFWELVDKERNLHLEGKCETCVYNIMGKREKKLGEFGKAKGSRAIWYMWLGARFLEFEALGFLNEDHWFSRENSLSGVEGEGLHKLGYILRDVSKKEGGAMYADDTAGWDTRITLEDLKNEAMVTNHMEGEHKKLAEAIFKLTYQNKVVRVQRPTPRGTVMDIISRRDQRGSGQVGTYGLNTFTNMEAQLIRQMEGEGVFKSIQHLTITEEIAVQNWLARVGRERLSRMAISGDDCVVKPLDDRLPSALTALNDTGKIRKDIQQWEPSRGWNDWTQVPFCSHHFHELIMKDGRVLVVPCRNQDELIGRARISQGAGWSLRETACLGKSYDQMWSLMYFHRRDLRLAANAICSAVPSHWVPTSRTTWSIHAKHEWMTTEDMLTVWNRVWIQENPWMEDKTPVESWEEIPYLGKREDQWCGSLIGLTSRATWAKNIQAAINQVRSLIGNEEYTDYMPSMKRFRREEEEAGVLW

COc1ccc(CC2(CO)CCN(C(C)COc3ccccc3)CC2)cc1 (centres undefined)
EC50 [1]: 92.4 µM (inactive)
EC50 [2]: 0.115 µM (active)

Fc1ccccc1CN1CCN(c2ncccn2)CC1
EC50 [1]: 92.5 µM (inactive)
EC50 [2]: 1.26 µM (active)

COc1ccc(OC)c(Nc2nc(NCCCN(C)C)nc(N)c2[N+](=O)[O-])c1
AC50 [3]: 7.02 µM (active)
AC50 [4]: 20.2 µM (active)

Oc1cc(-n2cccn2)c(O)cc1-n1cccn1
IC50 [5]: > 66 µM (inactive)
IC50 [6]: 33 µM (inactive)
IC50 [7]: > 66 µM (inactive)
IC50 [8]: 79.2 µM (active)

COc1ccc(NC(=O)CSc2ccc(-c3ccccn3)nn2)cc1OC
EC50 [1]: 92.4 µM (inactive)
EC50 [2]: 0.589 µM (active)

CC(CNC(=S)Nc1cc(F)cc(F)c1)CSc1ccc(Cl)cc1 (centres undefined)
IC50 [9]: 13.5 µM (not active)
EC50 [10]: 30 µM (active)
IC50 [11]: 15.4 µM (inactive)
IC50 [12]: 23.9 µM (inactive)

O=C(CCCCCN1C(=O)c2cccc3cccc(c23)C1=O)NCc1cccnc1
EC50 [13]: > 150 µM (not active)
EC50 [14]: > 150 µM (inconclusive)
EC50 [15]: > 150 µM (not active)
IC50 [16]: > 20 µM (inactive)
EC50 [17]: 3.59 µM (inconclusive)
EC50 [18]: > 66.7 µM (inactive)

O=C(Nc1ccc(C(=O)O)cc1)/C(=C\C=C\c1ccccc1)NC(=O)c1cccc(Br)c1
CC50 [19]: 33.7 µM (active)
IC50 [11]: 60.7 µM (inactive)
IC50 [12]: 45.6 µM (inactive)
IC50 [20]: 83.3 µM (inactive)

CCS(=O)(=O)N1CCC(C(=O)N2CCc3ccccc3C2)CC1
IC50 [21]: > 100 µM (inactive)
IC50 [22]: 8.89 µM (active)

O=C(CN1C(=O)CSC1=O)N1CCc2ccccc2C1
IC50 [21]: 80.8 µM (inactive)
IC50 [22]: 10.6 µM (active)

CC(CNC(S)=Nc1cc(F)cc(F)c1)CSc1ccc(Cl)cc1 (centres undefined)
EC50 [23]: 8.3 µM (active)
EC50 [24]: 36 µM (active)
IC50 [20]: 27.8 µM (inactive)
AC50 [25]: 6.24 µM (active)

CCN1CCN(c2cc(C)c3cc(NC(S)=NCCCN4CCc5ccccc5C4)ccc3n2)CC1
AC50 [3]: 3 µM (active)
AC50 [4]: 20.6 µM (active)

COc1ccc(N2CSC3=C(C#N)C(c4ccc(OC)c(OC)c4)CC(=O)N3C2)c(OC)c1 (centres undefined)
IC50 [6]: > 80 µM (inactive)
IC50 [26]: 52.7 µM (active)

CCOC(=O)Nc1c2ccccc2nc2ccccc12
AC50 [4]: 54.8 µM (active)

O=c1c(Cc2ccc(Cl)cc2Cl)c(O)ccn1Cc1ccncc1
IC50 [11]: 29.2 µM (inactive)
IC50 [12]: 20 µM (inactive)
IC50 [20]: 83.2 µM (inactive)

Cc1cnc(C(=O)Nc2c(-c3ccccc3)[nH][nH]c2=O)cn1
IC50 [21]: 20.3 µM (active)
IC50 [22]: 30.3 µM (active)
